{
  "source": "patent US9708336B2",
  "about": "“Metallo-beta-lactamase inhibitors” (priority 2014, dated 2017)",
  "key": {"NDM-1": {"molecular_target": "NDM-1 (Klebsiella pneumoniae, UniProt C7C422)", "sequence (C7C422 whole entry, looked up, species assumed)": "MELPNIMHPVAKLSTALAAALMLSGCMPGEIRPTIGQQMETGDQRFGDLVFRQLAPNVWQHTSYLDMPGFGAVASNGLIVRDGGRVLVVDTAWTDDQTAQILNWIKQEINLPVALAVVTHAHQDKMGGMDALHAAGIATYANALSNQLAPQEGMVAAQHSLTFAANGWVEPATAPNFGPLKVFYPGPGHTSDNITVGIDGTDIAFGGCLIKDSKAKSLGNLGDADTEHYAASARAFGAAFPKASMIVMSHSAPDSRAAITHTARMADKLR", "test": "biochemical", "format": "biochemical", "settings": "read-out: NDM-1 IC50"}, "IMP-1": {"molecular_target": "IMP-1 (Serratia marcescens, UniProt P52699)", "sequence (P52699 whole entry, looked up)": "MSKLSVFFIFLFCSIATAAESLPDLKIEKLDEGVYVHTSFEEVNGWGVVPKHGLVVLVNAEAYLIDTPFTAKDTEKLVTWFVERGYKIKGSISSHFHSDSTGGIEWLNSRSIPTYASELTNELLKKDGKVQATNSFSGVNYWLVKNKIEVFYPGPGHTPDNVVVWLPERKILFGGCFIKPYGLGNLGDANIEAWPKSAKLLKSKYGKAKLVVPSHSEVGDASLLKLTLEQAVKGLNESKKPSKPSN", "test": "biochemical", "format": "biochemical", "settings": "read-out: IMP-1 IC50"}, "VIM-1": {"molecular_target": "VIM-1 (Pseudomonas aeruginosa (strain ATCC 15692 / DSM 22644 / CIP 104116 / JCM 14847 / LMG 12228 / 1C / PRS 101 / PAO1), UniProt A0A0F7KYQ8)", "test": "Enzyme activity: determination of IC50, fluorescence assay with CCF2-FA substrate (VIM-1)", "format": "biochemical"}, "[1]": {"system": "Escherichia coli expressing NDM-1 (CLB30016)", "test": "Antibiotic potentiation activity: synergistic concentration (MITC95) with imipenem, OD600 growth", "format": "cell-based", "protocol": "(§1) Antibiotic Potentiation Activity: Determination of Synergistic Concentration\n(§2) The bacterial strains tested included the clinical strains Escherichia coli expressing NDM-1 (CLB30005, CLB30016), Serratia marcescens expressing IMP-1 (CL5741), and Klebsiella pneumoniae expressing VIM-1 (IHMA599644) Inhibitor activity was measured in the presence and absence of imipenem in a 384-well microplate.\n(§3) The clinical strains CLB30016, CL5741 and IHMA599644 were grown on trypticase soy agar containing 5% sheep's blood. The clinical strain CLB30005 was grown on Mueller Hinton broth agar containing 8 ug/ml imipenem. The bacteria on agar plates were incubated at 35° C. with humidity overnight. The following day, individual colonies from each clinical strain were picked and resuspended in 5 ml saline to attain an OD600 of 0.14, 0.11, 0.15 and 0.13, for CLB30005, CLB30016, CL5741 and IHMA599644, respectively. These were further diluted 1:100 into 1.1×CAMHB and used to inoculate the test wells as described below.\n(§4) Imipenem in 10 mM 3-(N-morpholino)propanesulfonic acid (MOPS, pH 7) was stored in single use aliquots at −80° C. […] On the day of the assay, 4 μl of antibiotic was added to 45 ul of bacteria followed by 1 μl of test compound and mixed by pipetting and with an orbital shaker. The concentration of antibiotic used in the assay was 4 μg/ml, or optionally 1 μg/ml. Microplates were covered and incubated at 35° C. for 22 hours to 24 hours. At the end of the incubation, absorbance was determined using a spectrophotometer."}, "[2]": {"system": "Klebsiella pneumoniae expressing VIM-1 (IHMA599644)", "test": "Antibiotic potentiation activity: synergistic concentration (MITC95) with imipenem, OD600 growth", "format": "cell-based", "protocol": "as §1, §2, §3, §4"}, "[3]": {"system": "Serratia marcescens expressing IMP-1 (CL5741)", "test": "Antibiotic potentiation activity: synergistic concentration (MITC95) with imipenem, OD600 growth", "format": "cell-based", "protocol": "as §1, §2, §3, §4"}, "[4]": {"settings": "NDM-1 enzyme, CCF2-FA fluorescence assay"}, "[5]": {"settings": "IMP-1 enzyme, CCF2-FA fluorescence assay"}, "[6]": {"settings": "VIM-1 enzyme, CCF2-FA fluorescence assay, read-out: VIM-1 IC50"}, "[7]": {"settings": "Escherichia coli expressing NDM-1 (CLB30016), 95% growth inhibition"}, "[8]": {"settings": "Klebsiella pneumoniae expressing VIM-1 (IHMA599644), 95% growth inhibition"}, "[9]": {"settings": "Serratia marcescens expressing IMP-1 (CL5741), 95% growth inhibition"}, "[10]": {"settings": "NDM-1 enzyme, CCF2-FA substrate"}, "[11]": {"settings": "IMP-1 enzyme, CCF2-FA substrate"}, "[12]": {"settings": "VIM-1 enzyme, CCF2-FA substrate, read-out: VIM-1 IC50"}, "[13]": {"settings": "(CLB30016, NDM-1), 95% growth inhibition"}, "[14]": {"settings": "Klebsiella pneumoniae IHMA599644 (VIM-1), 95% growth inhibition"}, "[15]": {"settings": "Serratia marcescens CL5741 (IMP-1), 95% growth inhibition"}, "[16]": {"settings": "fluorescence assay with CCF2-FA substrate"}, "[17]": {"settings": "concentration giving 95% inhibition of bacterial growth"}, "[18]": {"settings": "VIM-1 IC50, VIM-1 enzyme, CCF2-FA substrate"}},
  "note": "Read-outs that look alike come from different tables or passages of the source.",
  "data": [
    {"smiles": "N=CN1CCC(N)(c2ccc(-c3ccc(C(F)(F)F)c(S(N)(=O)=O)c3-c3nn[nH]n3)cc2)CC1", "note": "[Example 437, 4′-(4-amino-1-(iminomethyl)piperidin-4-yl)-2-(2H-tetrazol-5-yl)-4-(trifluoromethyl)-[1,1′-biphenyl]-3-sulfonamide]", "values": [
      {"measurement": "IC50", "setting": "NDM-1; [4]", "value": 7.95, "unit": "nM"},
      {"measurement": "IC50", "setting": "IMP-1; [5]", "value": 7.82, "unit": "nM"},
      {"measurement": "IC50", "setting": "VIM-1; [6]", "value": 8, "unit": "nM"},
      {"measurement": "Escherichia coli MITC95", "setting": "[1]; [7]", "value": 0.3906, "unit": "µM"},
      {"measurement": "Klebsiella pneumoniae MITC95", "setting": "[2]; [8]", "value": 3.125, "unit": "µM"},
      {"measurement": "Serratia marcescens MITC95", "setting": "[3]; [9]", "value": 0.3906, "unit": "µM"}
    ]},
    {"smiles": "NS(=O)(=O)c1cccc(-c2cc3ccncc3s2)c1-c1nnn[nH]1", "note": "[Example 410, 2-(1H-tetrazol-5-yl)-3-thieno[2,3-c]pyridin-2-yl-benzenesulfonamide]", "values": [
      {"measurement": "IC50", "setting": "NDM-1; [4]", "value": 4.11, "unit": "nM"},
      {"measurement": "IC50", "setting": "IMP-1; [5]", "value": 107, "unit": "nM"},
      {"measurement": "IC50", "setting": "VIM-1; [6]", "value": 19.2, "unit": "nM"},
      {"measurement": "Escherichia coli MITC95", "setting": "[1]; [7]", "value": 0.5859, "unit": "µM"},
      {"measurement": "Klebsiella pneumoniae MITC95", "setting": "[2]; [8]", "value": 18.75, "unit": "µM"},
      {"measurement": "Serratia marcescens MITC95", "setting": "[3]; [9]", "value": 3.125, "unit": "µM"}
    ]},
    {"smiles": "Nc1nc2c(-c3ccc(CCC4CCC(N)CC4)c(S(N)(=O)=O)c3-c3nn[nH]n3)cccc2s1", "note": "(stereo not drawn) [Example 541, 3-(2-Aminobenzo[d]thiazol-4-yl)-6-(2-(4-aminocyclohexyl)ethyl)-2-(2H-tetrazol-5-yl)benzenesulfonamide]", "values": [
      {"measurement": "IC50", "setting": "NDM-1; [10]", "value": 0.133, "unit": "nM"},
      {"measurement": "IC50", "setting": "IMP-1; [11]", "value": 7.21, "unit": "nM"},
      {"measurement": "IC50", "setting": "VIM-1; [12]", "value": 5.11, "unit": "nM"},
      {"measurement": "Escherichia coli MITC95", "setting": "[1]; [13]", "value": 3.125, "unit": "µM"},
      {"measurement": "Klebsiella pneumoniae MITC95", "setting": "[2]; [14]", "value": 25, "unit": "µM"},
      {"measurement": "Serratia marcescens MITC95", "setting": "[3]; [15]", "value": 6.25, "unit": "µM"}
    ]},
    {"smiles": "CC(C)(C)c1cccc(S(N)(=O)=O)c1-c1nnn[nH]1", "note": "[Example 161, 3-(tert-butyl)-2-(1H-tetrazol-5-yl)benzenesulfonamide]", "values": [
      {"measurement": "IC50", "setting": "NDM-1; [16]", "value": 20.1, "unit": "nM"},
      {"measurement": "IC50", "setting": "IMP-1; [16]", "value": 306, "unit": "nM"},
      {"measurement": "IC50", "setting": "VIM-1; VIM-1 IC50, fluorescence assay with CCF2-FA substrate", "value": 874, "unit": "nM"},
      {"measurement": "Escherichia coli expressing NDM-1 (CLB 30016) MITC95", "setting": "[1]; [17]", "value": 1.563, "unit": "µM"},
      {"measurement": "Klebsiella pneumoniae expressing VIM-1 (IHMA 599644) MITC95", "setting": "[2]; [17]", "value": 150, "unit": "µM"},
      {"measurement": "Serratia marcescens expressing IMP-1 (CL5741) MITC95", "setting": "[3]; [17]", "value": 6.25, "unit": "µM"}
    ]},
    {"smiles": "NS(=O)(=O)c1c(C(F)(F)F)ccc(-c2cccc3c2CCCN3)c1-c1nnn[nH]1", "note": "[Example 518, 3-(1,2,3,4-Tetrahydroquinolin-5-yl)-2-(1H-tetrazol-5-yl)-6-(trifluoromethyl)benzenesulfonamide]", "values": [
      {"measurement": "IC50", "setting": "NDM-1; [10]", "value": 0.775, "unit": "nM"},
      {"measurement": "IC50", "setting": "IMP-1; [11]", "value": 1.62, "unit": "nM"},
      {"measurement": "IC50", "setting": "VIM-1; [18]", "value": 0.342, "unit": "nM"},
      {"measurement": "Escherichia coli MITC95", "setting": "[1]; [13]", "value": 1.563, "unit": "µM"},
      {"measurement": "Klebsiella pneumoniae MITC95", "setting": "[2]; [14]", "value": 6.25, "unit": "µM"},
      {"measurement": "Serratia marcescens MITC95", "setting": "[3]; [15]", "value": 0.3906, "unit": "µM"}
    ]},
    {"smiles": "NS(=O)(=O)c1cccc(-c2ccc(C3CCN(CC4CCNC4)CC3)cc2)c1-c1nnn[nH]1", "note": "(stereo not drawn) [Example 618, 3-[4-[1-(pyrrolidin-3-ylmethyl)-4-piperidyl]phenyl]-2-(1H-tetrazol-5-yl)benzenesulfonamide]", "values": [
      {"measurement": "IC50", "setting": "NDM-1; [10]", "value": 11.7, "unit": "nM"},
      {"measurement": "IC50", "setting": "IMP-1; [11]", "value": 16.1, "unit": "nM"},
      {"measurement": "IC50", "setting": "VIM-1; [12]", "value": 345, "unit": "nM"},
      {"measurement": "Escherichia coli MITC95", "setting": "[1]; [13]", "value": 0.3906, "unit": "µM"},
      {"measurement": "Klebsiella pneumoniae MITC95", "setting": "[2]; [14]", "value": 75, "unit": "µM"},
      {"measurement": "Serratia marcescens MITC95", "setting": "[3]; [15]", "value": 0.3906, "unit": "µM"}
    ]},
    {"smiles": "NS(=O)(=O)c1c(C(F)(F)F)ccc([C@H]2CC[C@H](N)CC2)c1-c1nnn[nH]1", "note": "[Example 820, 3-((1r,4r)-4-aminocyclohexyl)-2-(1H-tetrazol-5-yl)-6-(trifluoromethyl)benzenesulfonamide]", "values": [
      {"measurement": "IC50", "setting": "NDM-1; [16]", "value": 13.5, "unit": "nM"},
      {"measurement": "IC50", "setting": "IMP-1; [16]", "value": 39.4, "unit": "nM"},
      {"measurement": "IC50", "setting": "VIM-1; fluorescence assay with CCF2-FA substrate, read-out: VIM-1 IC50", "value": 0.659, "unit": "nM"},
      {"measurement": "Escherichia coli MITC95", "setting": "[1]; CLB30016 (NDM-1), 95% inhibition of bacterial growth", "value": 0.3906, "unit": "µM"},
      {"measurement": "Klebsiella pneumoniae MITC95", "setting": "[2]; IHMA599644 (VIM-1), 95% inhibition of bacterial growth", "value": 0.7813, "unit": "µM"},
      {"measurement": "Serratia marcescens MITC95", "setting": "[3]; CL5741 (IMP-1), 95% inhibition of bacterial growth", "value": 0.7813, "unit": "µM"}
    ]},
    {"smiles": "NS(=O)(=O)c1cccc(-c2ccc(NCC3CCN3)nc2)c1-c1nnn[nH]1", "note": "(stereo not drawn) [Example 638, 3-[6-(azetidin-2-ylmethylamino)-3-pyridyl]-2-(1H-tetrazol-5-yl)benzenesulfonamide]", "values": [
      {"measurement": "IC50", "setting": "NDM-1; [10]", "value": 55, "unit": "nM"},
      {"measurement": "IC50", "setting": "IMP-1; [11]", "value": 596, "unit": "nM"},
      {"measurement": "IC50", "setting": "VIM-1; [18]", "value": 181, "unit": "nM"},
      {"measurement": "Escherichia coli MITC95", "setting": "[1]; [13]", "value": 0.7813, "unit": "µM"},
      {"measurement": "Klebsiella pneumoniae MITC95", "setting": "[2]; [14]", "value": 12.5, "unit": "µM"},
      {"measurement": "Serratia marcescens MITC95", "setting": "[3]; [15]", "value": 12.5, "unit": "µM"}
    ]}
  ]
}
